According to patent US20100272736A1, “COMBINATION ANTIBIOTIC AND ANTIBODY THERAPY FOR THE TREATMENT OF PSEUDOMONAS AERUGINOSA INFECTION” (priority 2009, published 2010):

Columns and labels:
[1] = test system: P. aeruginosa PA103; assay: Acute murine airway infection model: survival and body temperature (Mab166 iv, antibiotic ip); assay type: in vivo, mice; settings: for survival rate over a 7 day period: antibiotic alone ip Q8H (ciprofloxacin 100 mg/kg, tobramycin 3.3 mg/kg, ceftazidime 1000 mg/kg); for survival (piperacillin experiment): piperacillin/tazobactam 1000 mg/kg ip Q8H, Mab166 300 μg iv, FIG. 7
Protocol: Bacterial administration and lung injury measurement in mice. Following anesthesia with avertin (250 mg kg^−1; ip), mice were inoculated with a volume of fifty μl of bacterial working stock (1.5×10^6 CFU), which was instilled into the left lung through the trachea using a 27G gavages needle. Mice were allowed to recover for 15 minutes prior to being returned to their cages. […] Rectal temperature was recorded hourly for the initial 12 hours post bacterial instillation followed by daily measurements for 7 days. Survival time was recorded for each mouse.
Antibiotics and PcrV antibody administration. […] All antibiotics were administrated intraperitoneally 1 hour after P. aeruginosa instillation. Four doses of each antibiotic were tested in mice to determine the dose needed to produce sub-optimal survival rates (40-60%) in mice infected with 1.5×10^6 PA103 CFU, which is a 3× lethal amount of bacteria.
Statistics. Kaplan-Meier plots were generated for survival analysis and ANOVA was used to compare lung injury score, bacterial CFU's and MPO activity in various treatment groups at specific time points; P 0.05 was considered significant.
(§1) The acutely infectious strain P. aeruginosa PA103 was used for this study.
Anti-PcrV antibody was intravenously injected one hour before P. aeruginosa instillation. Mice were then anesthetized with avertin (250 mg/kg), prior to instillation of 1.5×10^6 CFU PA103 into the trachea. Intraperitoneal piperacillin (1000 mg/kg, Q8H) injection commenced one hour after P. aeruginosa instillation and repeated until mice expired. Piperacillin was administered in combination with tazobactam (a pencillinase inhibitor), which is the standard practice for administration. In this example, “piperacillin” refers to piperacillin in combination with tazobactam.

[2] = test system: PA103; assay: PA103 antibiotic sensitivity (MicroScan Neg Combo plates, CLSI guidelines); assay type: cell-based, P. aeruginosa; settings: conventional antibiotic resistance testing, CLSI interpretation
Description: PA103 antibiotic sensitivity Dade Behring MicroScan Neg Combo plates were used to determine the antibiotic sensitivity of PA103 by conventional antibiotic sensitivity testing according to the manufacturers instructions.
as §1

[3] = test system: P. aeruginosa PA103; assay: Bacterial enumeration (CFU) in lungs, blood and spleen; assay type: in vivo, mice
Protocol: Bacterial enumeration. Lungs were removed aseptically from the thoracic cavity, placed in 1 ml of sterile PBS and homogenized. Spleens were aseptically removed and homogenized in 1 ml of PBS and blood was drawn from right ventricle puncture. All samples were serially diluted in sterile PBS and plated on P. aeruginosa isolation agar prior to overnight incubation at 37° C. Plates with cell counts between 30 and 300 were enumerated and mean CFU ml^−1 of triplicate counts was calculated for each sample.
These samples were analyzed for bacterial CFU's as described in materials and methods.

SMILES | survival rate over a 7 day period [1] [%] | antibiotic susceptibility of PA103 [2] | survival (piperacillin experiment) [1] | survival (piperacillin experiment) ([1]; listed as Piperacillin) | P. aeruginosa CFU's in the blood ([3]; 8 and 24 hours post infection) | total CFU's in the lungs ([3]; 8 and 24 hours post infection, compared to control mice) | bacterial CFU's in the spleen ([3]; 24 hours vs 8 hours post infection)
CC(C)(O/N=C(\C(=O)N[C@@H]1C(=O)N2C(C(=O)[O-])=C(C[n+]3ccccc3)CS[C@H]12)c1csc(N)n1)C(=O)O [ceftazidime] | 40 | susceptible | – | – | – | – | –
CCN1CCN(C(=O)N[C@@H](C(=O)N[C@@H]2C(=O)N3[C@@H]2SC(C)(C)[C@@H]3C(=O)O)c2ccccc2)C(=O)C1=O [piperacillin] | – | – | increased survival minimally | slight increase in animal survival | – | – | –
NC[C@H]1O[C@H](O[C@H]2[C@H](O)[C@@H](O[C@H]3O[C@H](CO)[C@@H](O)[C@H](N)[C@H]3O)[C@H](N)C[C@@H]2N)[C@H](N)C[C@@H]1O [tobramycin] | 60 | susceptible | – | – | significant (P=0.01, P=0.0046 respectively) increases | significantly lower | increased significantly
